In paper PMC3322948, “Phase I first-in-human study of TAK-285, a novel investigational dual HER2/EGFR inhibitor, in cancer patients” (British Journal of Cancer, 2012):
Read-outs that look alike come from different tables or passages of the source.

Assays:
[1] = test system: EGFR; settings: biochemical; ref Aertgeerts et al, 2011; read-out: 50% inhibition concentration, EGFR phosphorylation; cited from earlier work
[2] = test system: HER2; settings: biochemical; ref Aertgeerts et al, 2011; read-out: 50% inhibition concentration, HER2 phosphorylation; cited from earlier work
[3] = design: method as in Shell et al, 2008; settings: non-clinical; ref Shell et al, 2008; cited from earlier work
[4] = test system: solid tumours; assay: Antitumour activity by RECIST in patients; assay type: in vivo, human (Japanese patients)
Procedure: The primary study endpoints were to determine the MTD as well as PK profiles of TAK-285 and its metabolite, M-I (data on file, Takeda Pharmaceutical Company Limited). The secondary endpoints were objective response rate (complete response (CR) and partial response (PR)), disease control rate (CR, PR and stable disease (SD), for at least 12 weeks), and time to tumour progression, defined as the time from the first dose of TAK-285 until disease progression or death. Tumour response was assessed every 4 weeks by RECIST version 1.0 ([Therasse et al, 2000]).

[5] = rodent and primate; non-clinical studies; cited from earlier work
[6] = Plasma pharmacokinetics after oral TAK-285 (LC-MS/MS, noncompartmental); assay type: in vivo, human (Japanese patients); settings: for Cmax / half-life / Tmax / AUC(0-inf) / AUC: human, plasma, oral; for Tmax: median (range); for AUC: read-out: AUC0–tau
Procedure: (§1) In the dose escalation cohort, plasma samples for PK analysis were collected at predose and up to 72 h after single dose administration and on day 21 after repeated administration of TAK-285. Urine samples were also collected up to 24-h postdose. In the repeated administration cohort, plasma samples for PK analysis were collected at predose and up to 12-h postdose on days 1 and 28. Urine samples were also collected up to 12-h postdose each day. Concentrations of TAK-285 and M-I in plasma and urine were determined using validated liquid chromatography tandem mass spectrometry (LC-MS/MS) methods. The plasma and urine samples were treated by liquid–liquid extraction and subjected to LC-MS/MS equipped with a reversed-phase column. The lower limit of quantification for both TAK-285 and M-I was 0.2 ng ml^–1 in plasma and 2 ng ml^–1 in urine when 50 μl of the plasma sample and 55 μl of the urine sample (containing 5 μl of Tween 80 solution) were analysed. Tween 80 solution was added to the urine sample to prevent the adsorption of analytes onto the sample containers. The accuracy of the plasma assay (percentage deviation from nominal) ranged from −10.8 to 11.0% for TAK-285, and from −14.0 to 13.8% for M-I. […] Pharmacokinetic parameters of TAK-285 and M-I were estimated for each patient using noncompartmental methods with Phoenix WinNonlin Version 6.1 (Pharsight, Mountain View, CA, USA).

[7] = test system: HER2- or EGFR-overexpressing human tumour xenografts such as BT-474, 4-1 ST and A431; design: method as in Iwahara et al, 2008; settings: orally administered; ref Iwahara et al, 2008; cited from earlier work
[8] = Urinary excretion after oral TAK-285; assay type: in vivo, human (Japanese patients); settings: up to 12- or 24-h postdose following single or multiple dosing
Procedure: as §1

[9] = test system: circulating tumour cells; assay: Circulating tumour cell enumeration (CellSearch); assay type: in vivo, human (Japanese patients)
Procedure: At screening and on day 15 after the start of repeated administration, 20 ml of peripheral blood was obtained and divided into two 10 ml exclusive use containers (CellSave tubes) filled with 300 μl of preservative solution (4.6% Na-ethylenediaminetetraacetate, 36% cell preservative, 0.36% polyethylene glycol and 0.4% inert ingredients). The samples were stored at room temperature and processed within 72 h after sampling. The CellSearch System (Veridex LLC, Raritan, NJ, USA) was used for the isolation and enumeration of circulating tumour cells (CTCs), which were defined as nucleated cells lacking cluster of differentiation 45 and expressing cytokeratin.

[10] = 50 mg, single dosing, 50 mg b.i.d., dose escalation cohort, mean (s.d.)
[11] = 50 mg, single dosing, 50 mg q.d., dose escalation cohort, mean (s.d.)
[12] = 100 mg, single dosing, 100 mg b.i.d., dose escalation cohort, mean (s.d.)
[13] = 200 mg, single dosing, 200 mg b.i.d., dose escalation cohort, mean (s.d.)
[14] = 300 mg, single dosing, 300 mg b.i.d., repeated administration cohort, mean (s.d.)
[15] = multiple versus single dosing, across doses

SMILES: CC(C)(O)CC(=O)NCCn1ccc2ncnc(Nc3ccc(Oc4cccc(C(F)(F)F)c4)c(Cl)c3)c21 [TAK-285]
- IC50 [2]: 17 nM
- cardiac risks [3]: potentially no exhibition of elevated cardiac risks
- disease control rate ([4]; 1 of 26 patients): 3.8%
- objective response rate ([4]; 1 of 26 patients): 3.8%
- median time to tumour progression ([4]; 26 patients): 58 days
- patients showing reduction in tumour size ([4]; dose escalation cohort): one
- patients achieving partial response (PR), percent ([4]; of 26 patients): 3.8%
- patients achieving partial response (PR), number ([4]; parotid cancer, 300 mg b.i.d.): One
- patients showing reduction in tumour size ([4]; repeated administration cohort, of six patients): three
- tolerability in toxicity models [5]: well tolerated
- Cmax ([6]; 50 mg b.i.d., multiple dosing day 21, 50 mg b.i.d., dose escalation cohort, mean (s.d.)): 358 ng/mL
- half-life ([6]; 50 mg b.i.d., multiple dosing day 21, 50 mg b.i.d., dose escalation cohort, mean (s.d.), read-out: t1/2 (converted)): 7.49 h
- Tmax ([6]; 50 mg b.i.d., multiple dosing day 21, 50 mg b.i.d., dose escalation cohort): 2.05 h
- Cmax ([6]; 50 mg q.d., multiple dosing day 21, 50 mg q.d., dose escalation cohort, mean (s.d.)): 260 ng/mL
- half-life ([6]; 50 mg q.d., multiple dosing day 21, 50 mg q.d., dose escalation cohort, mean (s.d.), read-out: t1/2 (converted)): 8.69 h
- Tmax ([6]; 50 mg q.d., multiple dosing day 21, 50 mg q.d., dose escalation cohort): 2 h
- AUC(0-inf) [6, 10]: 1970 ng·h/mL
- Cmax [6, 10]: 234 ng/mL
- half-life ([6]; 50 mg, single dosing, 50 mg b.i.d., dose escalation cohort, mean (s.d.), read-out: t1/2 (converted)): 6.45 h
- Tmax ([6]; 50 mg, single dosing, 50 mg b.i.d., dose escalation cohort): 1 h
- AUC(0-inf) [6, 11]: 1730 ng·h/mL
- Cmax [6, 11]: 214 ng/mL
- half-life ([6]; 50 mg, single dosing, 50 mg q.d., dose escalation cohort, mean (s.d.), read-out: t1/2 (converted)): 7.27 h
- Tmax ([6]; 50 mg, single dosing, 50 mg q.d., dose escalation cohort): 1.49 h
- Cmax ([6]; 100 mg b.i.d., multiple dosing day 21, 100 mg b.i.d., dose escalation cohort, mean (s.d.)): 774 ng/mL
- half-life ([6]; 100 mg b.i.d., multiple dosing day 21, 100 mg b.i.d., dose escalation cohort, mean (s.d.), read-out: t1/2 (converted)): 7.79 h
- Tmax ([6]; 100 mg b.i.d., multiple dosing day 21, 100 mg b.i.d., dose escalation cohort): 2 h
- AUC(0-inf) [6, 12]: 2820 ng·h/mL
- Cmax [6, 12]: 379 ng/mL
- half-life ([6]; 100 mg, single dosing, 100 mg b.i.d., dose escalation cohort, mean (s.d.), read-out: t1/2 (converted)): 9.43 h
- Tmax ([6]; 100 mg, single dosing, 100 mg b.i.d., dose escalation cohort): 2 h
- Cmax ([6]; 200 mg b.i.d., multiple dosing day 21, 200 mg b.i.d., dose escalation cohort, mean (s.d.)): 2420 ng/mL
- half-life ([6]; 200 mg b.i.d., multiple dosing day 21, 200 mg b.i.d., dose escalation cohort, mean (s.d.), read-out: t1/2 (converted)): 6.95 h
- Tmax ([6]; 200 mg b.i.d., multiple dosing day 21, 200 mg b.i.d., dose escalation cohort): 2 h
- AUC(0-inf) [6, 13]: 9530 ng·h/mL
- Cmax [6, 13]: 965 ng/mL
- half-life ([6]; 200 mg, single dosing, 200 mg b.i.d., dose escalation cohort, mean (s.d.), read-out: t1/2 (converted)): 6.57 h
- Tmax ([6]; 200 mg, single dosing, 200 mg b.i.d., dose escalation cohort): 2.48 h
- Cmax ([6]; 300 mg b.i.d., multiple dosing day 21, 300 mg b.i.d., dose escalation cohort, mean (s.d.)): 3700 ng/mL
- half-life ([6]; 300 mg b.i.d., multiple dosing day 21, 300 mg b.i.d., dose escalation cohort, mean (s.d.), read-out: t1/2 (converted)): 8.25 h
- Tmax ([6]; 300 mg b.i.d., multiple dosing day 21, 300 mg b.i.d., dose escalation cohort): 2 h
- Cmax ([6]; 300 mg, multiple dosing day 28, 300 mg b.i.d., repeated administration cohort, mean (s.d.)): 2810 ng/mL
- half-life ([6]; 300 mg, multiple dosing day 28, 300 mg b.i.d., repeated administration cohort, mean (s.d.), read-out: t1/2 (converted)): 11.1 h
- Tmax ([6]; 300 mg, multiple dosing day 28, 300 mg b.i.d., repeated administration cohort): 2.97 h
- Cmax ([6]; 300 mg, single dosing, 300 mg b.i.d., dose escalation cohort, mean (s.d.)): 1350 ng/mL
- half-life ([6]; 300 mg, single dosing, 300 mg b.i.d., dose escalation cohort, mean (s.d.), read-out: t1/2 (converted)): 7.5 h
- Tmax ([6]; 300 mg, single dosing, 300 mg b.i.d., dose escalation cohort): 2 h
- AUC(0-inf) [6, 14]: 9210 ng·h/mL
- Cmax [6, 14]: 983 ng/mL
- half-life ([6]; 300 mg, single dosing, 300 mg b.i.d., repeated administration cohort, mean (s.d.), read-out: t1/2 (converted)): 6.1 h
- Tmax ([6]; 300 mg, single dosing, 300 mg b.i.d., repeated administration cohort): 2.03 h
- half-life ([6]; at all doses, single dose, read-out: estimated terminal-phase half-life (t1/2)): 6 to 9 h
- AUC ([6]; multiple dosing day 21, 50 mg b.i.d., dose escalation cohort, mean (s.d.)): 2720 ng·h/mL
- AUC ([6]; multiple dosing day 21, 50 mg q.d., dose escalation cohort, mean (s.d.)): 2210 ng·h/mL
- AUC ([6]; multiple dosing day 21, 100 mg b.i.d., dose escalation cohort, mean (s.d.)): 6090 ng·h/mL
- xenograft growth [7]: effectively inhibited xenograft growth
- circulating tumour cell (CTC) changes after treatment ([9]; screening versus cycle 1 day 15): did not show significant changes
- patients with unfavourable baseline CTC count converted to favourable ([9]; seven patients with ⩾5 cells per 7.5 ml blood at baseline): none
